The test has as its target T1, recombinant human G9a protein (Homo sapiens, UniProt Q96KQ7).
T1 construct: purchased BPS Bioscience Inc. #51001
T1 sequence (Q96KQ7 785-1210 limits assumed): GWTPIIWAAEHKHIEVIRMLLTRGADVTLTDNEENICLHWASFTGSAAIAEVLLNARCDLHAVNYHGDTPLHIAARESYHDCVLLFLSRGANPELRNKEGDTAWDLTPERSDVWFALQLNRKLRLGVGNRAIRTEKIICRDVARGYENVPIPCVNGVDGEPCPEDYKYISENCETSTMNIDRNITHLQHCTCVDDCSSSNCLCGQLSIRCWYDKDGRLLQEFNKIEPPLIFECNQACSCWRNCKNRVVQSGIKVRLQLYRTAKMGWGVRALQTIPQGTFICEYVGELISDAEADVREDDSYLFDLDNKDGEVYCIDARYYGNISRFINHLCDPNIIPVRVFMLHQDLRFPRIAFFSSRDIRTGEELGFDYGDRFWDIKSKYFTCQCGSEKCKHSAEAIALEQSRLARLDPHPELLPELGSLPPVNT
As to the kind of experiment: G9a inhibitory activity test (ALPHA). It is filed as biochemical. The settings on record: read-out: Inhibitory activity (G9a IC50). In a few lines: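 Human G9a (0.05 to 0.1 nM) in Tris pH 9.0 buffer preincubated with compound 10 min, then biotinylated histone H3 (1-21) peptide and SAM mixed 1:1 from 500 nM and 150 μM solutions, 1 h at room temperature. H3K9me2 detected by AlphaLISA acceptor/streptavidin donor beads; IC50 from percent inhibition relative to no-compound and no-enzyme controls.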

Bounds are passed on as bounds.

The term IC50 denotes the point on the concentration scale where inhibition reaches its midpoint. `CCCCC(NC(=O)c1[nH]c2c(c1C)C(=O)CC(C)(C)C2)C(=O)N[C@@H]1CCc2ccccc21` (stereo partly drawn) [Example 1-111]: the IC50 was in the range of 50 to 200 nM. With `CCCCC(NC(=O)c1[nH]c2c(c1C)C(=O)CC(C)(C)C2)C(=O)NC1CCC(N(C)C)CC1` (stereo not drawn) [Example 1-112], the IC50 is at least 200 nM.

On to `CCCCC(NC(=O)c1[nH]c2c(c1C)C(=O)CC(C)(C)C2)C(=O)Nc1cccc(CN2CCCC2)c1` (stereo not drawn) [Example 1-113], for which the IC50 was under 50 nM. For the molecule `CCCCC(NC(=O)c1[nH]c2c(c1C)C(=O)CC(C)(C)C2)C(=O)Nc1cc(NC(C)=O)ccc1OC` (stereo not drawn) [Example 1-114], the IC50 was at least 200 nM. In the case of `CCCCC(NC(=O)c1[nH]c2c(c1C)C(=O)CC(C)(C)C2)C(=O)Nc1cccc2c1CCN(C(=O)OC(C)(C)C)C2` (stereo not drawn) [Example 1-115], the IC50 was at least 200 nM.

Consider `Cc1cccc2c1CCN2C(=O)C(CCC1CC1)NC(=O)c1[nH]c2c(c1C)C(=O)CC(C)(C)C2` (stereo not drawn) [Example 1-116], for which the IC50 is at least 200 nM. For the molecule `Cc1c(C(=O)NC(CCC2CC2)C(=O)N2CCc3c(O)cccc32)[nH]c2c1C(=O)CC(C)(C)C2` (stereo not drawn) [Example 1-117], the IC50 was at least 200 nM.

With `Cc1c(C(=O)NC(CCC2CC2)C(=O)N2CCc3c(OCCCN4CCCCC4)cccc32)[nH]c2c1C(=O)CC(C)(C)C2` (stereo not drawn) [Example 1-118], the IC50 is at least 200 nM. Take `Cc1c(C(=O)NC(CCC2CC2)C(=O)N2CCc3c(OCCCN(C)C)cccc32)[nH]c2c1C(=O)CC(C)(C)C2` (stereo not drawn) [Example 1-119]: the IC50 was at least 200 nM. Take `Cc1c(C(=O)NC(CCC2CC2)C(=O)N2CCc3c(OCCN4CCCC4)cccc32)[nH]c2c1C(=O)CC(C)(C)C2` (stereo not drawn) [Example 1-120]: the IC50 is 50 to 200 nM.

Regarding `Cc1c(C(=O)NC(CCC2CC2)C(=O)N2CCc3c(OCC4CCN(C)CC4)cccc32)[nH]c2c1C(=O)CC(C)(C)C2` (stereo not drawn) [Example 1-121], the IC50 is at least 200 nM. In the case of `Cc1c(C(=O)NC(CCC2CC2)C(=O)N2CCc3c(OCCN(C)C)cccc32)[nH]c2c1C(=O)CC(C)(C)C2` (stereo not drawn) [Example 1-122] it was 50 to 200 nM. As for `Cc1c(C(=O)NC(CCC2CC2)C(=O)N2CCc3c(OCCN4CCCCC4)cccc32)[nH]c2c1C(=O)CC(C)(C)C2` (stereo not drawn) [Example 1-123], the IC50 was 50 to 200 nM. As for `Cc1c(C(=O)NC(CCC2CC2)C(=O)N2CCc3c(OC4CCN(C)CC4)cccc32)[nH]c2c1C(=O)CC(C)(C)C2` (stereo not drawn) [Example 1-124], the IC50 is 50 to 200 nM.

Turning to `Cc1c(C(=O)NC(CCC2CC2)C(=O)N2CCc3cc(CN(C)C)ccc32)[nH]c2c1C(=O)CC(C)(C)C2` (stereo not drawn) [Example 1-125], the IC50 is at least 200 nM.

Take `Cc1c(C(=O)NC(CCC2CC2)C(=O)N2CCc3c(CN4CCCC4)cccc32)[nH]c2c1C(=O)CC(C)(C)C2` (stereo not drawn) [Example 1-126]: the IC50 is under 50 nM. With `Cc1c(C(=O)NC(CCC2CC2)C(=O)N2CCc3cc(CN4CCCC4)ccc32)[nH]c2c1C(=O)CC(C)(C)C2` (stereo not drawn) [Example 1-127] the figure was 50 to 200 nM. Regarding `Cc1c(C(=O)NC(CCC2CC2)C(=O)N2CCc3c(CN4CCCCC4)cccc32)[nH]c2c1C(=O)CC(C)(C)C2` (stereo not drawn) [Example 1-128], the IC50 is under 50 nM. As to `Cc1c(C(=O)NC(CCC2CC2)C(=O)N2CCc3cc(CN4CCCCC4)ccc32)[nH]c2c1C(=O)CC(C)(C)C2` (stereo not drawn) [Example 1-129], the IC50 is at least 200 nM. `COc1ccc2c(c1)CCN2C(=O)C(CCC1CC1)NC(=O)c1[nH]c2c(c1C)C(=O)CC(C)(C)C2` (stereo not drawn) [Example 1-130]: the IC50 is at least 200 nM. For the molecule `COc1ccc2c(c1)N(C(=O)C(CCC1CC1)NC(=O)c1[nH]c3c(c1C)C(=O)CC(C)(C)C3)CC2` (stereo not drawn) [Example 1-131], the IC50 is at least 200 nM. Consider `Cc1c(C(=O)NC(CCC2CC2)C(=O)N2CCc3cc(O)ccc32)[nH]c2c1C(=O)CC(C)(C)C2` (stereo not drawn) [Example 1-132], for which the IC50 is at least 200 nM. With `Cc1c(C(=O)NC(CCC2CC2)C(=O)N2CCc3cc(OCCO)ccc32)[nH]c2c1C(=O)CC(C)(C)C2` (stereo not drawn) [Example 1-133], the IC50 is at least 200 nM. With `Cc1c(C(=O)NC(CCC2CC2)C(=O)N2CCc3cc(OCCN(C)C)ccc32)[nH]c2c1C(=O)CC(C)(C)C2` (stereo not drawn) [Example 1-134] the figure was 50 to 200 nM. In the case of `Cc1c(C(=O)NC(CCC2CC2)C(=O)N2CCc3cc(OCCN4CCCCC4)ccc32)[nH]c2c1C(=O)CC(C)(C)C2` (stereo not drawn) [Example 1-135] it was 50 to 200 nM. In the case of `Cc1c(C(=O)NC(CCC2CC2)C(=O)N2CCc3ccc(O)cc32)[nH]c2c1C(=O)CC(C)(C)C2` (stereo not drawn) [Example 1-136] it was at least 200 nM. `Cc1c(C(=O)NC(CCC2CC2)C(=O)Nc2cccc(CN(C)C)c2)[nH]c2c1C(=O)CC(C)(C)C2` (stereo not drawn) [Example 1-137]: the IC50 is under 50 nM. For `Cc1c(C(=O)NC(CCC2CC2)C(=O)Nc2ccc(CN(C)C)cc2)[nH]c2c1C(=O)CC(C)(C)C2` (stereo not drawn) [Example 1-138], the IC50 is under 50 nM. For `Cc1c(C(=O)NC(CCC2CC2)C(=O)Nc2ccc(CCN(C)C)cc2)[nH]c2c1C(=O)CC(C)(C)C2` (stereo not drawn) [Example 1-139], the IC50 was under 50 nM. Consider `Cc1c(C(=O)NC(CCC2CC2)C(=O)N2CCc3cc(OCCN(C)C)ccc3C2)[nH]c2c1C(=O)CC(C)(C)C2` (stereo not drawn) [Example 1-140], for which the IC50 is at least 200 nM. For the molecule `CCc1c(C(=O)NC(CCC2CC2)C(=O)N2CCc3c(OCCN(C)C)cccc32)[nH]c2c1C(=O)CC(C)(C)C2` (stereo not drawn) [Example 1-141], the IC50 is 50 to 200 nM. For the molecule `CC(C)c1c(C(=O)NC(CCC2CC2)C(=O)N2CCc3c(OCCN(C)C)cccc32)[nH]c2c1C(=O)CC(C)(C)C2` (stereo not drawn) [Example 1-142], the IC50 fell in the range of 50 to 200 nM.

With `Cc1c(C(=O)NC(CCC2CC2)C(=O)N2CCc3cc(CN4CCOCC4)ccc32)[nH]c2c1C(=O)CC(C)(C)C2` (stereo not drawn) [Example 1-143], the IC50 is at least 200 nM. For `Cc1c(C(=O)NC(CCC2CC2)C(=O)N2CCc3c(CN4CCOCC4)cccc32)[nH]c2c1C(=O)CC(C)(C)C2` (stereo not drawn) [Example 1-144], the IC50 is at least 200 nM. Consider `Cc1c(C(=O)NC(CCC2CC2)C(=O)N2CCc3ccc(CN4CCCC4)cc32)[nH]c2c1C(=O)CC(C)(C)C2` (stereo not drawn) [Example 1-145], for which the IC50 is at least 200 nM. For the molecule `Cc1c(C(=O)NC(CCC2CC2)C(=O)N2CCc3ccc(CN4CCCCC4)cc32)[nH]c2c1C(=O)CC(C)(C)C2` (stereo not drawn) [Example 1-146], the IC50 was at least 200 nM. For `Cc1c(C(=O)NC(CCC2CC2)C(=O)N2CCc3cc(N4CCOCC4)ccc32)[nH]c2c1C(=O)CC(C)(C)C2` (stereo not drawn) [Example 1-147], the IC50 was at least 200 nM. With `Cc1c(C(=O)NC(CCC2CC2)C(=O)NCc2cccc(CN(C)C)c2)[nH]c2c1C(=O)CC(C)(C)C2` (stereo not drawn) [Example 1-148] the figure was under 50 nM.

For the molecule `Cc1c(C(=O)NC(CCC2CC2)C(=O)NCc2ccc(CN(C)C)cc2)[nH]c2c1C(=O)CC(C)(C)C2` (stereo not drawn) [Example 1-149], the IC50 was under 50 nM. Turning to `CCCC[C@@H](NC(=O)c1[nH]c2c(c1C)C(=O)CC(C)(C)C2)C(=O)N[C@@H](C)c1ccccc1` [Example 2-2, 3,6,6-trimethyl-4-oxo-N-((R)-1-oxo-1-(((S)-1-phenylethyl)amino)hexan-2-yl)-4,5,6,7-tetrahydro-1H-indol-2-carboxamide], the IC50 is at least 200 nM. For the molecule `CCCC[C@H](NC(=O)c1[nH]c2c(c1C)C(=O)CC(C)(C)C2)C(=O)N[C@H](C)c1ccccc1` [Example 2-3], the IC50 is 50 to 200 nM.

Turning to `CCCC[C@@H](NC(=O)c1[nH]c2c(c1C)C(=O)CC(C)(C)C2)C(=O)N[C@H](C)c1ccccc1` [Example 2-4], the IC50 was at least 200 nM.

For the origin of these results see patent US20230127046A1, “G9a INHIBITOR” (RIKEN, priority 2019, published 2023).
